Our source for the AC50, IC50 and EC50 values is ChEMBL document CHEMBL1201862, “PubChem BioAssay data set” (2004).

By AC50 is commonly meant the concentration at which the activity in the assay is half-maximal. For orientation: IC50 means the concentration that gives 50% inhibition. One may read the EC50 as the concentration giving half of the maximal effect.

Data set [1] addresses Cytochrome P450 3A4 (Homo sapiens, UniProt P08684).
The nature of data set [2]: growth induction of Burl-1 ts yeast mutant, dose response, counter-screen for SUMOylation pathway inhibitor project, whole organism, S. cerevisiae, luminescence (AID 463199). Type of data set: functional. (Counterscreens check selectivity or assay interference.)
In data set [3] the target is Dual specificity protein phosphatase 6 (Rattus norvegicus, UniProt Q64346). In kind it is functional.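 Also: confirmatory in vitro dose-response testing of MKP-3 inhibition; recombinant His-tagged MKP-3 made in E. coli BL21 with OMFP substrate.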
Sequence of Dual specificity protein phosphatase 6 (Q64346 whole entry): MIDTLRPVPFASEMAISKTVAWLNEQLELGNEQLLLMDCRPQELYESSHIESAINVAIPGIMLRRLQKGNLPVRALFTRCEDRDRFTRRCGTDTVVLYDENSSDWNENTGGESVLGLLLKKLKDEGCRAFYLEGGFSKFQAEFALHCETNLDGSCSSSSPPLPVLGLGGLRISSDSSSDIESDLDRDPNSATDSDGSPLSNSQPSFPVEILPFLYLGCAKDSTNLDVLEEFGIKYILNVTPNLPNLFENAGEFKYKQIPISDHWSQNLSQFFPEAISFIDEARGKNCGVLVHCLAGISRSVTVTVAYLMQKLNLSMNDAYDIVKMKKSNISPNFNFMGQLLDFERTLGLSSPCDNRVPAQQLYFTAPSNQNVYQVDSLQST
Data set [4] has as its target Dual specificity protein phosphatase 3 (Homo sapiens, UniProt P51452). Put plainly: SAR VHR1 Fluorescent Assay for In Vitro dose response studies Set 2. [Related pubchem assays (depositor defined):AID1654, AID1661, AID1878]. In kind it is functional.
In data set [5] the target is UDP-galactopyranose mutase (Mycobacterium tuberculosis, UniProt P9WIQ1). In words: Inhibitors of Mycobacterium tuberculosis UDP-galactopyranose mutase (UGM) enzyme Measured in Biochemical System Using Plate Reader - 2105-02_Inhibitor_Dose_CherryPick_Activity. [Related pubchem assays (depositor defined):AID504439].
Sequence of UDP-galactopyranose mutase (P9WIQ1 whole entry): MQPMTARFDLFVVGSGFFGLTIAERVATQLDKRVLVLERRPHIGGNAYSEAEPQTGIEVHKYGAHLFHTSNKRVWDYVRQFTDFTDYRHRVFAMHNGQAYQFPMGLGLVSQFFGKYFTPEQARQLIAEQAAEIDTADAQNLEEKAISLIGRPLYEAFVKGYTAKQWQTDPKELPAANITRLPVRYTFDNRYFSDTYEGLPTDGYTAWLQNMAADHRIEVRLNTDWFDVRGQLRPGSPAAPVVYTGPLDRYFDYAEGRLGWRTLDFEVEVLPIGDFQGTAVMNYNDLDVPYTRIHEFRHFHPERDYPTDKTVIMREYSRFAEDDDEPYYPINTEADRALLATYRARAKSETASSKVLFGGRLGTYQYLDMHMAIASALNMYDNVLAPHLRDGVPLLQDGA
Data set [6] addresses T1, Zinc finger protein mex-5 (Caenorhabditis elegans, UniProt Q9XUB2).
T1 sequence (Q9XUB2 whole entry): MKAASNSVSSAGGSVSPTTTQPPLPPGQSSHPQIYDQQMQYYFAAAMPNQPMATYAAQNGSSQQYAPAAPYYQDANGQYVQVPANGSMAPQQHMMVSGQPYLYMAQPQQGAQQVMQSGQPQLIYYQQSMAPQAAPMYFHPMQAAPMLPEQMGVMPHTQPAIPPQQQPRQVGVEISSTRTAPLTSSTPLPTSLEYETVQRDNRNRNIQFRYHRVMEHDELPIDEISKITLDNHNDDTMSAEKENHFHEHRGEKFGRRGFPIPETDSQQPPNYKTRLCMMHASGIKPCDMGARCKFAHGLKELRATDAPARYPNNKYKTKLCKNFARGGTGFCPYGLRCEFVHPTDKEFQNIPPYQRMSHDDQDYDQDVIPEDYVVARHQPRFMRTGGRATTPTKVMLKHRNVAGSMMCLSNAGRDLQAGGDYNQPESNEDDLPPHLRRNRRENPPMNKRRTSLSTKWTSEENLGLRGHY
Put plainly: MEX-5/TCR-2 RNA interaction inhibitors, dose response, biochemical, C. elegans, fluorescence polarization (AID 1960). A general note: In fluorescence polarisation assays a small probe gives low polarisation when free and higher when bound to something large.

For data set [7], the target named is T2, RNA-binding protein pos-1 (Caenorhabditis elegans, UniProt G5EF15).
T2 sequence (G5EF15 whole entry): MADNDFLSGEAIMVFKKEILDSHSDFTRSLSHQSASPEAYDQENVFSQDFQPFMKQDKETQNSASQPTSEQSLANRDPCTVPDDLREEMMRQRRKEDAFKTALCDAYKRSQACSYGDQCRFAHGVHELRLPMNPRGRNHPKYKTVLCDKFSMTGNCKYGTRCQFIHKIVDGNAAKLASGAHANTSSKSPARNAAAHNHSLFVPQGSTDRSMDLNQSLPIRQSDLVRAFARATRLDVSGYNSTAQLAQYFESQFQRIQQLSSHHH
In words: inhibitors of POS-1/mex-3 RNA binding, dose response, biochemical, fluorescence polarization (AID 1964).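 Also: purified POS-1 fused to maltose binding protein made in E. coli; potency of compounds blocking POS-1 binding to fluorescent RNA.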

Calls of active or inactive are those of the source.

Sequence of Cytochrome P450 3A4 (P08684 whole entry): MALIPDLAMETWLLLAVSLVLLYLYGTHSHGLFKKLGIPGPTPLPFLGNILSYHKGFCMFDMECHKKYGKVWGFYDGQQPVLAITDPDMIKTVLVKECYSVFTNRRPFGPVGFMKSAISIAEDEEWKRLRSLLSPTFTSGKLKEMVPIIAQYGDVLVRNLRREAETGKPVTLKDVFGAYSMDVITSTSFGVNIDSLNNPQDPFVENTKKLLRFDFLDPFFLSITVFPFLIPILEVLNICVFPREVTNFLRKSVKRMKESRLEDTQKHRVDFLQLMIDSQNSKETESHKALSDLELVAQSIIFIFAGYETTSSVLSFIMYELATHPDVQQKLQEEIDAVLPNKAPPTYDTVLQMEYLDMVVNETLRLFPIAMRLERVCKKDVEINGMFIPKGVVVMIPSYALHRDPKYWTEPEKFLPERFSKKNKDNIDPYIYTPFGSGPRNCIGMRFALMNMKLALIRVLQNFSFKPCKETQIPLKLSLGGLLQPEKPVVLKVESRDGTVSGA
Sequence of Dual specificity protein phosphatase 3 (P51452 whole entry): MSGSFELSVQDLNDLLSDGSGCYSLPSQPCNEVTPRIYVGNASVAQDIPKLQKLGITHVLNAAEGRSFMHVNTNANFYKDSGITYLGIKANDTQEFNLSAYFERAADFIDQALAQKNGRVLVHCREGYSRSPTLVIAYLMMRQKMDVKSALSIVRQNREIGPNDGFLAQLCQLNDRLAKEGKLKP

Turning to `CC(=O)Nc1ccccc1C(=O)OCc1ccc(C(=O)c2ccccc2)cc1`, the AC50 result in data set [1] was “inconclusive”. Regarding `Cc1ccc(C2C(C(=O)c3cccs3)=C(O)C(=O)N2c2ccc(S(N)(=O)=O)cc2)cc1` (configuration not stated), the AC50 in data set [2] was 48.5 µM (active). As to `NS(=O)(=O)c1cc(C(=O)NC2CCSc3ccccc32)c(Cl)cc1Cl` (configuration not stated), the IC50 in data set [3] and in data set [4] was > 100 µM (inactive) in each case. Regarding `CCOCCCn1/c(=N/C(=O)c2cccs2)c(C#N)cc2c(=O)n3ccccc3nc21`, the AC50 in data set [5] was > 500 µM (inactive). For the same compound, the EC50 in data set [6] was 40 µM (inconclusive); in data set [7], 28.9 µM (active).
